Results as given in PubChem BioAssay (NCI).
Values joined by “and” are separate entries in the source; they are usually repeats but may differ in a detail not shown here. Identical values can stand only once.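 All cell lines were grown in 96-well plates and treated with compound for 48 hours. GI50 = concentration required for 50% inhibition of growth. TGI is the concentration that stops growth completely.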

Assays:
Assay in all cases: inhibition of tumour cell growth, NCI panel, 48 h
CCRF-CEM leukemia = system: CCRF-CEM leukemia
NCI-H522 lung = system: NCI-H522 lung
M14 melanoma = system: M14 melanoma
NCI/ADR-RES ovarian = system: NCI/ADR-RES ovarian
U251 CNS = system: U251 CNS
SF-295 CNS = system: SF-295 CNS
RPMI-8226 leukemia = system: RPMI-8226 leukemia
UACC-257 melanoma = system: UACC-257 melanoma
SK-OV-3 ovarian = system: SK-OV-3 ovarian
HOP-92 NSCLC = system: HOP-92 NSCLC

SMILES | GI50 (CCRF-CEM leukemia) [µM] | TGI (CCRF-CEM leukemia) [µM] | GI50 (NCI-H522 lung) [µM] | TGI (NCI-H522 lung) | GI50 (M14 melanoma) [µM] | TGI (M14 melanoma) | GI50 (NCI/ADR-RES ovarian) [µM] | TGI (NCI/ADR-RES ovarian) | GI50 (U251 CNS) [µM] | TGI (U251 CNS) [µM] | GI50 (SF-295 CNS) [µM] | TGI (SF-295 CNS) [µM] | GI50 (RPMI-8226 leukemia) [µM] | TGI (RPMI-8226 leukemia) | GI50 (UACC-257 melanoma) [µM] | TGI (UACC-257 melanoma) [µM] | GI50 (SK-OV-3 ovarian) [µM] | TGI (SK-OV-3 ovarian) [µM] | TGI (HOP-92 NSCLC) [µM] | GI50 (HOP-92 NSCLC) [µM]
CCCCCCCCCC(CCCC(O)CC(=O)O)OC1OC(COC2OC(C)C(OC(C)=O)C(O)C2O)C(O)C(O)C1OC1OC(CO)C(O)C(O)C1OC1OC(C)C(OC(=O)CC(C)C)C(O)C1O (centres undefined) | > 35 | > 35 | > 35 | > 35 µM | > 35 | > 35 µM | > 35 | > 35 µM | > 35 | > 35 | > 35 | > 35 | > 35 | > 35 µM | > 35 | > 35 | > 35 | > 35 |  | 
COc1ccc2c(c1)[n+](=O)c(C(=O)C/C(=N/NC(=O)C[N+](C)(C)C)C(=O)Nc1cccc(C)c1C)c(C)n2O |  |  |  | > 100 µM |  | > 100 µM |  |  |  | > 100 |  | > 100 |  | > 100 µM |  | > 100 |  | > 100 | > 100 | 
CN(NC1OC(CO)C(O)C(O)C1O)c1ccccc1 (centres undefined) |  | > 100 |  | > 100 µM |  | > 100 µM |  |  |  | > 100 |  | > 100 |  | > 100 µM |  | > 100 |  |  | > 100 | 
CN(C)CCn1cnc2ncccc2c1=O |  | > 100 |  | > 100 µM |  | > 100 µM |  |  |  | > 100 |  | > 100 |  |  |  |  |  | > 100 | > 100 | 
CCCCCCCCCCCCCCCCc1c(C(=O)OC)nc(NN)[nH]c1=O |  | > 50 |  | > 50 µM |  | > 50 µM |  |  |  | > 50 |  | > 50 |  | > 50 µM |  | > 50 |  | > 50 | > 50 | 
CC(=O)Nc1ccc(/C=C2\N=C(c3ccccc3)OC2=O)cc1 |  | > 100 |  |  |  | > 100 µM |  |  |  | > 100 |  | > 100 |  | > 100 µM |  | > 100 |  | > 100 | > 100 | 
COc1ccc(-c2[nH]nc(N)c2-c2cc(OC)c3c(c2)OCO3)cc1 | 3.47 | 38.8 |  |  | 2.55 | 7.24 µM | 2.33 | 8.48 µM | 4.29 | > 100 | 3.92 | 32.4 | 3.8 | 52.3 µM | 5.77 | > 100 | 5.74 | > 100 | 46.8 | 3.54
O=C(N/C(=C\c1ccccc1Cl)c1nc2ccccc2[nH]1)c1ccccc1 |  | > 100 |  | 72.5 µM |  | 54.3 µM |  |  |  | > 100 |  | 43.4 |  |  |  |  |  | > 100 | 34.1 | 
CCOC(=O)C(NO)C(Sc1ccccc1)c1ccc(OC)cc1 (centres undefined) |  |  |  | > 100 µM |  | > 100 µM |  |  |  | > 100 |  | > 100 |  | > 100 µM |  | > 100 |  | > 100 | > 100 | 
CCOc1ccc(OCC)c([P+](c2ccccc2)(c2ccccc2)c2ccccc2)c1 |  | 14.7 |  |  |  | 12.6 µM |  |  |  | 10.8 |  | 6.38 |  | 2.36 µM |  | 3.8 |  |  | 0.95 | 
CN(C)C(=O)NC(=S)N(C)C |  | > 100 |  | > 100 µM |  | > 100 µM |  |  |  | 14 |  | > 100 |  | > 100 µM |  | > 100 |  | > 100 | > 100 | 
CC(=O)OC(C)(C)/C=C/C(=O)[C@](C)(O)[C@H]1[C@H](O)C[C@@]2(C)[C@@H]3CC=C4[C@@H](C=C(O)C(=O)C4(C)C)[C@]3(C)C(=O)C[C@]12C |  |  |  | 196 nM [middle of 4 runs] | 0.0193 | 0.722 µM and 1.01 µM |  | 5.45 µM and 6.12 µM and 5.39 µM |  |  |  |  |  | 771 nM [middle of 4 runs] |  |  |  |  |  | 
COc1ccc(C(=O)O[C@H]2[C@H](O[C@H]3[C@@H](O)COC(O[C@H]4C[C@H]5[C@@H]6CC=C7C[C@@H](O)CC[C@]7(C)[C@H]6CC[C@]5(C)[C@H]4[C@H](C)C(=O)CCC(C)C)[C@@H]3OC(C)=O)OC[C@@H](O)[C@@H]2O)c(C)c1 (some centres undefined) | < 0.01 | 0.13 | 0.0114 | 0.607 µM | < 0.01 | 0.0102 µM | 8.48 | 86.1 µM | < 0.01 | 18.7 | < 0.01 | < 0.01 |  |  | 0.0196 | 0.0621 | 0.0246 | 9.5 | 0.0866 | < 0.01
CC1=C(C(=O)NCc2ccccc2)C(c2ccccc2C)C(C(=O)NCc2ccccc2)=C(C)N1 |  | > 100 |  | 66.2 µM |  | 42.8 µM |  |  |  | 68.3 |  | > 85.5 |  | > 100 µM |  | > 76.4 |  | > 100 | > 86.8 | 
Clc1ccc2ncc(-c3cccc(NC4CNC4)n3)n2c1 | 3.62 | 72.7 | 6.13 | 27.9 µM | 8.87 | 25.5 µM | 33.5 | > 100 µM | 6.85 | 48.7 | 3.34 | 20.2 |  |  | 11.5 | 51.4 | 9.24 | > 100 | 67.7 | 20.5
COc1cccc2nc3ccccc3nc12 |  | > 100 |  |  |  | > 100 µM |  | > 100 µM |  | > 100 |  | > 100 |  | 69.1 µM |  | > 100 |  | > 100 | 78.1 | 
C[C@H](CS)C(=O)N1c2ccccc2C[C@H]1C(=O)O |  | > 100 |  | > 100 µM |  |  |  | > 100 µM |  | > 100 |  | > 100 |  |  |  | > 100 |  | > 100 |  | 
CCN(CC)c1ccc2nc3c4ccccc4c(=O)cc-3n(-c3ccccc3)c2c1 | 2.33 | 7.72 |  |  | 1.91 | 3.8 µM | 2.34 | 7.86 µM | 1.49 | 6.61 | 1.29 | 3.28 | 0.49 | 2.58 µM | 1.12 | 2.9 | 1.91 | 5.92 | 4.78 | 1.24
Cc1ccc(-c2nc(N3CCNCC3)c3oc(-c4ccccc4)nc3n2)cc1 | 2.16 | 4.79 | 1.64 | 3.43 µM | 1.78 | 3.31 µM |  |  | 1.79 | 3.24 | 1.69 | 3.16 | 2.16 | 4.77 µM | > 100 | > 100 | 15.7 | 29.5 | 3.36 | 1.66
